Measured values from ChEMBL document CHEMBL1201862, “PubChem BioAssay data set” (2004).
Calls of active or inactive are those of the source. Cut-off read from the data, not from the text of the source, for most assays here: actives have a measured EC50 and inactives only a lower limit.

Columns and labels:
[1] = inhibitors of firefly luciferase expression or activity, dose response, H4 neuroglioma cells, luminescence (AID 1990); assay type: functional, cell-based
[2] = Luminescence Cell-Based Dose Response HTS to Identify Inhibitors of 5'UTR Stem-Loop Driven Prion Protein mRNA Translation in H4 Neuroglioblastoma Cells. [Related pubchem assays: 1827 (Project Summary), 1813 (Primary HTS)]; assay type: functional
[3] = inhibitors of SNCA 5'UTR-driven reporter translation, confirmation, H4 neuroglioma cells, luminescence (AID 1988); assay type: functional, cell-based
HEK293 = experiment: inhibitors of LMP1-driven NF-kB reporter, dose response, cell-based, HEK293, luciferase, cherry-pick (AID 588343); assay type: functional; conditions: Homo sapiens
[4] = biological target: 26S proteasome non-ATPase regulatory subunit 14 (Homo sapiens, UniProt O00487); experiment: inhibition of proteasome subunit RPN11 – biochemical, fluorescence polarization, uHTS hits, confirmation (AID 602368); assay type: functional
[5] = biological target: 72 kDa type IV collagenase (Homo sapiens, UniProt P08253); experiment: Dose Response validation of uHTS RPN11 inhibitor hits using a MMP-2 Fluorescence assay.; assay type: functional
72 kDa type IV collagenase, sequence (P08253 whole entry): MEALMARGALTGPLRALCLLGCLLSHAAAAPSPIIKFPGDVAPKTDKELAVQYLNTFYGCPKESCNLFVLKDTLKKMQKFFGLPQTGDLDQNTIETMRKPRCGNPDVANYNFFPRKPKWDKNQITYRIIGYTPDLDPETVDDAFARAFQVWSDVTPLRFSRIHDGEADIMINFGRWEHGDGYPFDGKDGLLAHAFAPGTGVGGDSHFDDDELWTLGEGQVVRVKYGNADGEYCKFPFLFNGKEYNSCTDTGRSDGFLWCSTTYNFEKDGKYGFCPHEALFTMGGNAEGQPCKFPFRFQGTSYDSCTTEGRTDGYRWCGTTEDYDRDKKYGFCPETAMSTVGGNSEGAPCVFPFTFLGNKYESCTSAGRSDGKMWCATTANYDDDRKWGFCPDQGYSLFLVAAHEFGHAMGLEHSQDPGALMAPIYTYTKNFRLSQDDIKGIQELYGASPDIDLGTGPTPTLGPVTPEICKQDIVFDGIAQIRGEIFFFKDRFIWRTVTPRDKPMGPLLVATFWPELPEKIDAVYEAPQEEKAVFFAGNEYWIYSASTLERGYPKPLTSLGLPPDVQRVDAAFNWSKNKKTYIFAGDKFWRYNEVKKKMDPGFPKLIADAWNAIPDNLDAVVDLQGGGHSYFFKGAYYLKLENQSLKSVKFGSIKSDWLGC

Prothrombin = Prothrombin (Bos taurus, UniProt P00735); experiment: thrombin inhibition, dose response, biochemical, fluorescence polarization, uHTS hits (AID 602369); assay type: functional
Aurora kinase B = Aurora kinase B (Homo sapiens, UniProt Q96GD4); assay type: functional
Aurora kinase B, sequence (Q96GD4 whole entry): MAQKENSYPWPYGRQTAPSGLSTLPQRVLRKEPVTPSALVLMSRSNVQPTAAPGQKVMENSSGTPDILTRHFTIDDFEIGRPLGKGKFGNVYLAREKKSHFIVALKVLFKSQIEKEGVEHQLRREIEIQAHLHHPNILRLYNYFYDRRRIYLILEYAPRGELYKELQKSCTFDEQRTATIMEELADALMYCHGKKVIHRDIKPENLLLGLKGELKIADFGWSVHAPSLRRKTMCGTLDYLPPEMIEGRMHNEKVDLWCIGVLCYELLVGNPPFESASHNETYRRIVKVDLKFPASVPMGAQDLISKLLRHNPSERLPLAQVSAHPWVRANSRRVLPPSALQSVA

[6] = biological target: Serine/threonine-protein kinase BRSK1 (Homo sapiens, UniProt Q8TDC3); assay type: functional;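 note: measured within a kinome-wide kinase panel, with the target listed as KIAA1811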
Serine/threonine-protein kinase BRSK1, sequence (Q8TDC3 whole entry): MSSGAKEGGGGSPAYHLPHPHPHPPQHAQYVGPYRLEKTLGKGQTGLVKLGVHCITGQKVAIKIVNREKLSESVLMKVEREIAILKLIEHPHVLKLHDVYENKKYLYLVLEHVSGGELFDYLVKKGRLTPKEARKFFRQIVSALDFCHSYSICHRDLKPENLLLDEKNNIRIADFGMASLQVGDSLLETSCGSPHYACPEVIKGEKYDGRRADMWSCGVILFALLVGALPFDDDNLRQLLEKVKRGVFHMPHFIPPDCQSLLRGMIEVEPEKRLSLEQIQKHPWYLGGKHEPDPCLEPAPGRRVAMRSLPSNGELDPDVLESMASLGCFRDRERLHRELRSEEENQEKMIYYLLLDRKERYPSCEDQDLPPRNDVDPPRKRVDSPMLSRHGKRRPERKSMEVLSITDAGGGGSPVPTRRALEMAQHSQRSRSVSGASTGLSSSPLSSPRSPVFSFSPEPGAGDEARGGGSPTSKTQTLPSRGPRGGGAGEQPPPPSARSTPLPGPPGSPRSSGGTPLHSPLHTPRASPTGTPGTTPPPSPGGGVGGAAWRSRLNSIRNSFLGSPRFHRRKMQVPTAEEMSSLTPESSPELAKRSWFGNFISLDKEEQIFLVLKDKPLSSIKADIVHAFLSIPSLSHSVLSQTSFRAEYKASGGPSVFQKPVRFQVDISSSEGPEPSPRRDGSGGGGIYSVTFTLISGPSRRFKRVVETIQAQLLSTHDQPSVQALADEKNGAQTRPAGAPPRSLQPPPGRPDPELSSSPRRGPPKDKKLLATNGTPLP

[7] = NIH-3T3 fibroblast cytotoxicity, dose response, cytotoxicity control, cell-based, fluorescence, Alamar Blue, secondary assay (AID 2327); assay type: functional;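 note: NIH-3T3 mouse fibroblasts cultured with fluconazole at 8 µg/mL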
[8] = system: Streptococcus sp. 'group A'; experiment: growth inhibition of control SK(-) GAS strain, dose response, counter-screen for streptokinase expression inhibitor project, luminescence, kanamycin, BacTiterGlo, confirmation (AID 1900); assay type: functional, organism-based
BJ [9] = experiment: cytotoxicity toward BJ-TERT fibroblasts, dose response, cell-based, RAS-independent, luminescence (AID 1933); assay type: functional; conditions: Homo sapiens
Beta-galactosidase = Beta-galactosidase (Escherichia coli, UniProt Q8VNN2); experiment: PubChem AID 485352; assay type: functional
Streptokinase A = biological target: T1, Streptokinase A (Streptococcus pyogenes serotype M1, UniProt P10520); experiment: S. pyogenes streptokinase expression inhibitors, potency, dose response, plasminogen activation absorbance, OD405 (AID 1914); assay type: functional, Streptococcus pyogenes M1 GAS;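 note: secreted streptokinase activity via plasminogen activation per viability signal from cell pellet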
T1 sequence (P10520 whole entry): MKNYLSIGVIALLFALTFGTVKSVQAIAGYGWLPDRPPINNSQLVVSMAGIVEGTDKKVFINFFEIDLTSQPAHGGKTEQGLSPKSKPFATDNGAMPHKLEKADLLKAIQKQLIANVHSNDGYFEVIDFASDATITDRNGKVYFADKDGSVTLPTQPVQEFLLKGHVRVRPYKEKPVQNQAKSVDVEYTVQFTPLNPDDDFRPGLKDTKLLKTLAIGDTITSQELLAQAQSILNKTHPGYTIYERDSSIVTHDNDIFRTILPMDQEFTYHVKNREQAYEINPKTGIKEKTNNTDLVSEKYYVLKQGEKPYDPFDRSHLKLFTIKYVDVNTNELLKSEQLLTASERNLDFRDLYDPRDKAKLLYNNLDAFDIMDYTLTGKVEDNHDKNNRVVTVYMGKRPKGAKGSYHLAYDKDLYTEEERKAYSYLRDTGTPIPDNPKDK

BJ [10] = experiment: cells; assay type: functional, cell-based; conditions: Homo sapiens
[11] = C. albicans growth with fluconazole, confirmation, fluorescence, retest (AID 2467); assay type: functional, cell-based
[12] = biological target: Type-1 angiotensin II receptor (Homo sapiens, UniProt P30556); experiment: AT1 receptor antagonists, dose response, selectivity assay for APJ receptor antagonist project, cell-based, uHTS hits (AID 463214); assay type: functional;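 note: antagonist potency against angiotensin II stimulated AT1 response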
[13] = biological target: Serine/threonine-protein phosphatase (Candida dubliniensis (strain CD36 / CBS 7987 / NCPF 3949 / NRRLY-17841) (Yeast), UniProt B9W6M3); experiment: calcineurin pathway inhibitors in yeast reporter, dose response, S. cerevisiae, CDRE-lacZ, luminescence, secondary (AID 2388); assay type: functional, cell-based;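 note: yeast reporter cells carrying a calcineurin-responsive lacZ construct stimulated with calcium chloride; luminescent beta-galactosidase reporter signal in whole cells rather than isolated phosphatase activity; potency for inhibition where a drop in reporter signal means calcineurin blockade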
Serine/threonine-protein phosphatase, sequence (B9W6M3 whole entry): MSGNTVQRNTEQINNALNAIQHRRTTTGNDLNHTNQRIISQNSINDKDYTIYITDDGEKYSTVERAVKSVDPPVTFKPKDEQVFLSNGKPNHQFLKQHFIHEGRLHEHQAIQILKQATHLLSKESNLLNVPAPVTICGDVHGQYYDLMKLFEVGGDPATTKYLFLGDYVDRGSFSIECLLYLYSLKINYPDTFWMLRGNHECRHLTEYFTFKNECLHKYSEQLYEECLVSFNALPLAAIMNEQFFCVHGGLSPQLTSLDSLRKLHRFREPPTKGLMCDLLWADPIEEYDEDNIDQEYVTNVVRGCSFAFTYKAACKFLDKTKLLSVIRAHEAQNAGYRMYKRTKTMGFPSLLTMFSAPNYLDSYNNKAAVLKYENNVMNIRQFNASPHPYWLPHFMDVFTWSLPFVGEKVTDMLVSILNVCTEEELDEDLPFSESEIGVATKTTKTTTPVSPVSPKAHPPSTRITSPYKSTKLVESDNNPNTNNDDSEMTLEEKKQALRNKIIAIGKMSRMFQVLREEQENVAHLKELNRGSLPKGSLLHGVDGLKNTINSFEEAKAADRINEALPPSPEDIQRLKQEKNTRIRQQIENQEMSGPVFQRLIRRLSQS

BJ [14] = experiment: cytotoxicity toward BJ-TERT-LT-ST fibroblasts, dose response, cell-based, RAS-independent, luminescence (AID 1935); assay type: functional; conditions: Homo sapiens;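 note: BJ fibroblasts immortalized with TERT plus LT and ST oncogenes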
[15] = cytotoxicity toward DRD oncogenic fibroblasts, dose response, cell-based, non-viral oncogenic, luminescence (AID 1934); assay type: functional; conditions: Homo sapiens
Streptococcus = experiment: Group A Streptococcus viability loss, dose response, counter-screen for streptokinase expression inhibitor project, luminescence, BacTiterGlo (AID 1915); assay type: functional, organism-based;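 note: potency for reduction of bacterial viability or growth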
[16] = biological target: Intestinal-type alkaline phosphatase (Homo sapiens, UniProt P09923); experiment: activation of human intestinal alkaline phosphatase – biochemical, dose response (AID 488873); assay type: functional
Intestinal-type alkaline phosphatase (Homo sapiens, UniProt P09923), sequence (P09923 whole entry): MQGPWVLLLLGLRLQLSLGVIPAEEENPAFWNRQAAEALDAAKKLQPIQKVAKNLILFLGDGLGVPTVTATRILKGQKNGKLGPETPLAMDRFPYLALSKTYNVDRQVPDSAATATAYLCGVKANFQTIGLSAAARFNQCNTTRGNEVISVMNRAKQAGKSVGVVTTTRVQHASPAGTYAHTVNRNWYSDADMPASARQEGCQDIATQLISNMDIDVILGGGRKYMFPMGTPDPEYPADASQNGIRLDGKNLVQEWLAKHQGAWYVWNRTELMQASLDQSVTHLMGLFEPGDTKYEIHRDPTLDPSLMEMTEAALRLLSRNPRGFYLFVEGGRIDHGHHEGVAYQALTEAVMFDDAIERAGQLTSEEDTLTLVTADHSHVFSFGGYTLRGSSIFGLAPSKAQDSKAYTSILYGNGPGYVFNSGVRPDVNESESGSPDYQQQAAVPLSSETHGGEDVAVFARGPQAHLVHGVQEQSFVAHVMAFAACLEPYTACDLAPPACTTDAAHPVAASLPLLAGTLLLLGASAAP

[17] = biological target: Beta-adrenergic receptor kinase 1 (Homo sapiens, UniProt P25098); experiment: aptamer displacement from bead-bound GRK2 – biochemical, cherry pick 1, bead flow cytometry, dose response (AID 504500)
Beta-adrenergic receptor kinase 1, sequence (P25098 whole entry): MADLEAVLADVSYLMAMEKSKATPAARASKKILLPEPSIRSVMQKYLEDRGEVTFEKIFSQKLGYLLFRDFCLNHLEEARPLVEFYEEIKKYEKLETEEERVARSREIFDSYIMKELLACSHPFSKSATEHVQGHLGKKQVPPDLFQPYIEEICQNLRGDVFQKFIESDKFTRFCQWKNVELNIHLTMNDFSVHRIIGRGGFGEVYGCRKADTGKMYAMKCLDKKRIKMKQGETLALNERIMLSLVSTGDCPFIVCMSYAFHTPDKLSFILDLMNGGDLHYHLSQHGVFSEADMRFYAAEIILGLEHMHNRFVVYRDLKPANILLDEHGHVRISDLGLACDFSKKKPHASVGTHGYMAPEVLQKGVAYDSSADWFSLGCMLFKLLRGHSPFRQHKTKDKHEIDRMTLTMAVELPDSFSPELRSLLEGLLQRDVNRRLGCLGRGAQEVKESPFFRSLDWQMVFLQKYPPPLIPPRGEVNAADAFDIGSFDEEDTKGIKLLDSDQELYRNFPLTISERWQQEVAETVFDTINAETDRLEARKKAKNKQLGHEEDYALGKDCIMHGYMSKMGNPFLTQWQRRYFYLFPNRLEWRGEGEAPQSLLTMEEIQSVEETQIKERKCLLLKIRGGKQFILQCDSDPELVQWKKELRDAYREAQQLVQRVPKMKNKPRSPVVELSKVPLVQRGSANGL

[18] = cytotoxicity in HEK-293T cells, dose response, cytotoxicity control for TCR NF-kB inhibitor project, luminescence, T-cell screen hits (AID 489026); assay type: functional, cell-based;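 note: cells exposed to compound about 14 hours before the viability readout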
[19] = biological target: Intestinal-type alkaline phosphatase (Mus musculus, UniProt P24822); experiment: mouse intestinal alkaline phosphatase activators, dose response, biochemical, luminescence, uHTS hits (AID 488783); assay type: functional
Intestinal-type alkaline phosphatase (Mus musculus, UniProt P24822), sequence (P24822 whole entry): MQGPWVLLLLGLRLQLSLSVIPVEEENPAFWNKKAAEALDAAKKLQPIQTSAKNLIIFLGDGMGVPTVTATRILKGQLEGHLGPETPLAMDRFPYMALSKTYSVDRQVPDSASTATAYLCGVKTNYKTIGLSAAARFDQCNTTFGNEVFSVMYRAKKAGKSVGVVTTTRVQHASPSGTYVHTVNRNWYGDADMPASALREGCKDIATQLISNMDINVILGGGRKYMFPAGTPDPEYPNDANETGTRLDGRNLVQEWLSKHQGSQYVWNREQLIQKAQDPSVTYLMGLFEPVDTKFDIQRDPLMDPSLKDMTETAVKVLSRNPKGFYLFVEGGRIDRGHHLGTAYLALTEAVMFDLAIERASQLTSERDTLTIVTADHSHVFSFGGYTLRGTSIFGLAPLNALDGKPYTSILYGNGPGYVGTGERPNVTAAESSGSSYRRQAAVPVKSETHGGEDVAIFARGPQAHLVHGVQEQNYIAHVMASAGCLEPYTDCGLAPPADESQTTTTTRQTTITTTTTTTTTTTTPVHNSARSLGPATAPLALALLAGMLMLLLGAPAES

[20] = biological target: T2, Alkaline phosphatase, tissue-nonspecific isozyme (Homo sapiens, UniProt P05186); experiment: TNAP enzyme activators, dose response, selectivity assay for mouse IAP activator project, biochemical, TNAP isozyme, mouse IAP uHTS hits (AID 488880); assay type: functional
T2 sequence (P05186 whole entry): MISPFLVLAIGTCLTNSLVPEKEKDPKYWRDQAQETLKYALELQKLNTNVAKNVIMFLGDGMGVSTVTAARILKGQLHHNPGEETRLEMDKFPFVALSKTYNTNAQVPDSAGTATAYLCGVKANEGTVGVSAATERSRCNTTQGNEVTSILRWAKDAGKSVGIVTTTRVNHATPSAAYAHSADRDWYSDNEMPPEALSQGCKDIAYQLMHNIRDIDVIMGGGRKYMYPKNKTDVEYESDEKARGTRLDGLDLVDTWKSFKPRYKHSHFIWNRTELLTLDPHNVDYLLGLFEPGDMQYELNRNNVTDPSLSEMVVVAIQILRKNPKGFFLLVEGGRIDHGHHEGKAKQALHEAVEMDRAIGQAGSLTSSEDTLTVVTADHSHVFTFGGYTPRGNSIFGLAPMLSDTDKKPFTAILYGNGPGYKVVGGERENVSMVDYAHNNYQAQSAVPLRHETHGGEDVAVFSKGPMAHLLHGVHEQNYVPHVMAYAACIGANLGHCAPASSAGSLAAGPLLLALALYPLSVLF

[21] = biological target: T3, Apoptotic protease-activating factor 1 (Homo sapiens, UniProt O14727); assay type: functional
T3 sequence (O14727 whole entry): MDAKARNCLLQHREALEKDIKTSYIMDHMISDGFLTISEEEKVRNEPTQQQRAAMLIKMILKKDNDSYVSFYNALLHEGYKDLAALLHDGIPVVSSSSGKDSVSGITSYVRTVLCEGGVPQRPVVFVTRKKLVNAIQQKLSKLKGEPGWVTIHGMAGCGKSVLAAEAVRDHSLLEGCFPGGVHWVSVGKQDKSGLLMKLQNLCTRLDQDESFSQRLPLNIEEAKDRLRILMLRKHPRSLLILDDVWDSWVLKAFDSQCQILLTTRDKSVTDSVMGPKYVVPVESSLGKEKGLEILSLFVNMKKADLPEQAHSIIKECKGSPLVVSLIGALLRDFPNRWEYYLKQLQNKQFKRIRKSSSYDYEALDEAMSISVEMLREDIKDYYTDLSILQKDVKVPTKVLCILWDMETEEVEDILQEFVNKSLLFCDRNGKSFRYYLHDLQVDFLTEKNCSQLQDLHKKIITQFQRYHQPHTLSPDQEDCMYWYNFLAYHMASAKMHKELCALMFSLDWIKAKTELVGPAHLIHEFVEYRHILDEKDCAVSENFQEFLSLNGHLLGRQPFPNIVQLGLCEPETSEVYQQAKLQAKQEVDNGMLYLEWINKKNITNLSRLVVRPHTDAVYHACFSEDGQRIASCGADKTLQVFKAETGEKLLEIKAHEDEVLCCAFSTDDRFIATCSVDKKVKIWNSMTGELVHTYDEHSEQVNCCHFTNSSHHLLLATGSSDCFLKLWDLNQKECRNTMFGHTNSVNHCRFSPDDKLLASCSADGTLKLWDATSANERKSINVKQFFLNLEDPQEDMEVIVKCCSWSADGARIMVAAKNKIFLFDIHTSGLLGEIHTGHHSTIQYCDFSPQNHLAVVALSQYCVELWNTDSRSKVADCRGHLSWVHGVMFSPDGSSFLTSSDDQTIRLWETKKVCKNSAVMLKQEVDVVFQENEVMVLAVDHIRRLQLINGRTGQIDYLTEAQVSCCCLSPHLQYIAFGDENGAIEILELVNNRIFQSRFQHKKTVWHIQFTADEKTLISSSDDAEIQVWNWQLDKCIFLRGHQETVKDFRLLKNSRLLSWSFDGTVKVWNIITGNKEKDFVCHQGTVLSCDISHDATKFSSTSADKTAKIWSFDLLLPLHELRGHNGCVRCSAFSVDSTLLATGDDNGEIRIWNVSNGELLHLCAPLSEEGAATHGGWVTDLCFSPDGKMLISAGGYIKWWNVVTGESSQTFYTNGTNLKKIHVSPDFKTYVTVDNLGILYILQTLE

BJ [22] = experiment: cytotoxicity toward Ras-transformed BJeLR fibroblasts, dose response, cell-based, alamar blue fluorescence, cherrypicked samples (AID 2631); assay type: functional; conditions: Homo sapiens;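 note: confirmatory dose-response assay in RAS-dependent BJ fibroblasts engineered with TERT, LT and ST, with cytotoxicity read by fluorescence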
INS1 = experiment: beta cell apoptosis inhibitors, cytokine rescue, dose response, luminescence, retest (AID 449756); assay type: functional, cell-based; conditions: Rattus norvegicus;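 note: cell death triggered by IL-1 beta plus TNF-alpha plus IFN-gamma mixture; protective hits raise ATP signal compared with cytokine alone wells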
[23] = biological target: ATP-dependent molecular chaperone HSP82 (Candida albicans (strain WO-1) (Yeast), UniProt C4YTQ8); experiment: loss of DOC-induced GRE-beta-galactosidase reporter signal, dose response, Hsp90 inhibitor project, S. cerevisiae, luminescence (AID 2400); assay type: functional, cell-based;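 note: beta-galactosidase luminescence from glucocorticoid response element reporter as proxy for Hsp90 function; inhibitor potency where signal loss means Hsp90 inhibition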
ATP-dependent molecular chaperone HSP82, sequence (C4YTQ8 whole entry): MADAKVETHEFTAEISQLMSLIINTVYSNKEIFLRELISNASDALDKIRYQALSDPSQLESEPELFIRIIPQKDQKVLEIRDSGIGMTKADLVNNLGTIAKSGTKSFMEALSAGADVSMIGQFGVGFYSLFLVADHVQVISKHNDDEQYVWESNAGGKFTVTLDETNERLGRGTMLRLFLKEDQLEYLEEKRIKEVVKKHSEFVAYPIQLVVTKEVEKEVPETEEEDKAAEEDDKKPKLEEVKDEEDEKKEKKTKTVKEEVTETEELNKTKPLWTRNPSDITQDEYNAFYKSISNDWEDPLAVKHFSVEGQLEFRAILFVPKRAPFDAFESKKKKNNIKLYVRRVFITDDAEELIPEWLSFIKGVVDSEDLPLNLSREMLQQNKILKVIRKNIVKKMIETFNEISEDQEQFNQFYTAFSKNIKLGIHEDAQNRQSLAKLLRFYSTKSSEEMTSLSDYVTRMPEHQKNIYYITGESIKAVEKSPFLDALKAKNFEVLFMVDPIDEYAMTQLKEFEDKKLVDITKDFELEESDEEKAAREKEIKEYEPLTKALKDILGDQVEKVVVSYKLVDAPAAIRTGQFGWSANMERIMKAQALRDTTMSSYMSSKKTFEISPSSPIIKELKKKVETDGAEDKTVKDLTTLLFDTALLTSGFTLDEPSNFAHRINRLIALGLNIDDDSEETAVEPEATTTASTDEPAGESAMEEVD

COc1ccc(Nc2oc(COc3ccccc3OC)nc2C#N)cc1
EC50 [1]: 7.69 µM (active) | EC50 [2]: 11 µM (active) | EC50 [3]: 6.17 µM (active) | AC50 (HEK293): 6.17 µM (active)

COc1cc(NC(=O)CCn2c(=S)[nH]c3ccccc3c2=O)cc(OC)c1OC
IC50 [4]: 74.1 µM (active) | IC50 [5]: 4.5 µM (active) | IC50 (Prothrombin): > 100 µM (inactive)

CCc1cccc2c1n(CC)c(=N)n2CC(=O)c1ccc(Br)cc1
Ki (Aurora kinase B): 2.51 µM (active) | Ki [6]: 2 µM (active)

CCN1/C(=C/c2ccc3cc(C)ccc3[n+]2CC)Sc2ccc3sccc3c21
EC50 [7]: 21.1 µM (active) | EC50 [8]: 3.29 µM (active) | EC50 (BJ [9]): 1.17 µM (inconclusive) | EC50 (Beta-galactosidase): > 40 µM (inactive) | EC50 (Streptokinase A): > 150 µM (not active) | EC50 (BJ [10]): 0.966 µM (inconclusive) | EC50 [11]: 0.046 µM (active) | IC50 [12]: > 40 µM (not active) | EC50 [13]: > 180 µM (inactive) | EC50 (BJ [14]): 1.23 µM (inconclusive) | EC50 [15]: 1.45 µM (inconclusive) | EC50 (Streptococcus): 4.44 µM (active) | EC50 [16]: 61.8 µM (active) | EC50 [17]: 0.12 µM (active) | IC50 [18]: > 80 µM (inactive) | EC50 [19]: 35.5 µM (active) | EC50 [20]: 60.6 µM (active) | IC50 [21]: > 100 µM (inactive) | EC50 (BJ [22]): 0.37 µM (inconclusive) | AC50 (INS1): < 0.195 µM (active) | EC50 [23]: 32 µM (active)
